Results reported in ChEMBL document CHEMBL1777782, “Indole 5-carboxamide Thumb Pocket I inhibitors of HCV NS5B polymerase with nanomolar potency in cell-based subgenomic replicons (part 2): central amino acid linker and right-hand-side SAR studies” (Bioorg Med Chem Lett, 2011).
≈ marks a conversion by molar mass, not a printed value.

Tests used:
[1] = Selectivity ratio for polio virus RNA-dependent RNA polymerase to HCV 1b NS5B RNA dependent RNA polymerase
[2] = tested on: Hepatitis C virus; test: Antiviral activity against Hepatitis C virus genotype 1b infected in human Huh-7 cells assessed as inhibition of viral replication after 72 hrs; format: functional, organism-based, Hepacivirus hominis; details: Huh-7, 72 h
[3] = Selectivity ratio for mammalian DNA-dependent RNA polymerase II to HCV 1b NS5B RNA dependent RNA polymerase
[4] = Cmax in overnight-fasted Sprague-Dawley rat at 10, mg/kg, po administered by oral gavage; format: ADME, organism-based; details: in vivo
[5] = Half life in human liver microsomes at 10 uM
[6] = Inhibition of HCV 1b NS5B RNA dependent RNA polymerase by scintillation proximity assay; design: species or system Hepacivirus hominis
[7] = physchem; details: phosphate buffer, pH 7.2
[8] = Half life in rat liver microsomes at 10 uM; format: ADME, Microsome
[9] = Permeability across apical to basolateral side in human Caco2 cells; details: Caco-2
[10] = Tmax in overnight-fasted Sprague-Dawley rat at 10, mg/kg, po administered by oral gavage; format: ADME, organism-based; details: in vivo
[11] = AUC in overnight-fasted Sprague-Dawley rat at 10, mg/kg, po administered by oral gavage; format: ADME, organism-based; details: plasma
[12] = Mean retention time in overnight-fasted Sprague-Dawley rat at 10, mg/kg, po administered by oral gavage; format: ADME, organism-based; details: in vivo

| SMILES | Ratio [1] | EC50 [2] | Ratio [3] | Cmax [4] | half-life at 10 µM ([5]; microsomes) | IC50 [6] | solubility thermodynamic at 24 h [7] | half-life at 10 µM [8] | Papp A→B [9] | Tmax [10] | AUC [11] | MRT [12] | half-life at 10 µM ([5]; liver microsomes) |
| --- | --- | --- | --- | --- | --- | --- | --- | --- | --- | --- | --- | --- | --- |
| Cn1c(-c2ccccn2)c(C2CCCCC2)c2ccc(C(=O)NC3(C(=O)Nc4ccc(C(=O)O)cc4)CCC3)cc21 | > 150 | 110 nM | > 150 | 500 nM | 21 min | 93 nM | 336 µg/mL (≈ 610 µM) | 9 min | 9.7 ×10⁻⁶ cm/s | – | – | – | – |
| Cn1c(-c2ccccn2)c(C2CCCCC2)c2ccc(C(=O)NC3(C(=O)Nc4ccc(/C=C/C(=O)O)cc4)CCC3)cc21 | > 150 | 43 nM | > 150 | 290 nM | 50 min | 52 nM | 6 µg/mL (≈ 10.4 µM) | 17 min | 39 ×10⁻⁶ cm/s | 30 min | 0.35 µM·h | – | – |
| CN1CC[C@@](NC(=O)c2ccc3c(C4CCCCC4)c(-c4ccccn4)n(C)c3c2)(C(=O)Nc2ccc(/C=C/C(=O)O)cc2)C1 | > 150 | 34 nM | > 150 | 320 nM | 456 min | 21 nM | 15 µg/mL (≈ 24.8 µM) | 18 min | 8.1 ×10⁻⁶ cm/s | 30 min | 0.81 µM·h | 228 min | – |
| Cn1c(-c2ccccn2)c(C2CCCCC2)c2ccc(C(=O)NC(C)(C)C(=O)Nc3ccc(/C=C/C(=O)O)cc3)cc21 | – | – | – | – | – | – | – | – | – | 15 min | – | – | – |
| CN1CCC(NC(=O)c2ccc3c(C4CCCCC4)c(-c4ccccn4)n(C)c3c2)(C(=O)Nc2ccc(/C=C/C(=O)O)cc2)CC1 | > 150 | 60 nM | > 150 | < 100 nM | – | 10 nM | 22 µg/mL (≈ 35.5 µM) | 34 min | 0.6 ×10⁻⁶ cm/s | – | – | – | 148 min |
| Cn1c(-c2ccccn2)c(C2CCCCC2)c2ccc(C(=O)N[C@@]3(C(=O)Nc4ccc(/C=C/C(=O)O)cc4)CCCNC3)cc21 | > 150 | 20 nM | > 150 | < 100 nM | – | 11 nM | 22 µg/mL (≈ 36.3 µM) | 17 min | 0.6 ×10⁻⁶ cm/s | – | – | – | 84 min |
| Cn1c(-c2ccccn2)c(C2CCCCC2)c2ccc(C(=O)NC(C)(C)C(=O)Nc3ccc(NC(=O)C(N)=O)cc3)cc21 | > 150 | 139 nM | > 150 | – | – | 124 nM | 1 µg/mL (≈ 1.72 µM) | – | 12.9 ×10⁻⁶ cm/s | – | – | – | 25 min |
| Cn1c(C(=O)O)cc2cc(NC(=O)C(C)(C)NC(=O)c3ccc4c(C5CCCCC5)c(-c5ccccn5)n(C)c4c3)ccc21 | > 150 | 143 nM | > 150 | – | – | 75 nM | 945 µg/mL (≈ 1600 µM) | – | 0.7 ×10⁻⁶ cm/s | – | – | – | 36 min |
| Cn1c(-c2ccccn2)c(C2CCCCC2)c2ccc(C(=O)NC(C)(C)C(=O)Nc3ccc(CCC(=O)O)cc3)cc21 | > 150 | 267 nM | > 150 | 630 nM | – | 132 nM | 244 µg/mL (≈ 431 µM) | – | 12.7 ×10⁻⁶ cm/s | 30 min | 0.81 µM·h | 102 min | 63 min |
| Cn1c(C(=O)O)cc2cc(NC(=O)[C@]3(NC(=O)c4ccc5c(C6CCCCC6)c(-c6ccccn6)n(C)c5c4)CCCNC3)ccc21 | > 150 | 245 nM | > 150 | – | – | 44 nM | 14 µg/mL (≈ 22.1 µM) | – | < 0.1 ×10⁻⁶ cm/s | – | – | – | 28 min |
| Cc1c(C(=O)O)sc2ccc(NC(=O)C3(NC(=O)c4ccc5c(C6CCCCC6)c(-c6ccccn6)n(C)c5c4)CCC3)cc12 | > 150 | 68 nM | > 150 | – | – | 122 nM | 112 µg/mL (≈ 180 µM) | – | 0.6 ×10⁻⁶ cm/s | – | – | – | 79 min |
| Cc1c(C(=O)O)sc2ccc(NC(=O)C(C)(C)NC(=O)c3ccc4c(C5CCCCC5)c(-c5ccccn5)n(C)c4c3)cc12 | > 150 | 46 nM | > 150 | – | – | 35 nM | 202 µg/mL (≈ 332 µM) | – | 0.8 ×10⁻⁶ cm/s | – | – | – | 34 min |
